Results: US11040954B1, “CXCR3 receptor agonists” (RECEPTOS LLC, priority 2016, dated 2021)
Read-outs that look alike come from different tables or passages of the source.

Tests used:
[1] = Mouse pharmacokinetics after oral gavage, plasma drug concentration by LC-MS/MS (C57BL/6); assay type: in vivo, C57bl/6 mice; conditions: for Cmax / AUC(0-t): mouse, plasma; for AUC(0-t): read-out: AUC0-24
Description: Compounds were formulated in 5% DMSO/5% Tween20 in H2O, sonicated, vortexed, and put on stir plate overnight at a dose volume of 10 mL/kg. Balb/C (Jackson laboratories) or C57bl/6 (Taconic Biosciences) mice (8-9 weeks old) were acclimated to the colony for 3 days prior to dosing. Water and food were provided ab libitum. Compounds were administered by oral gavage. Groups of six animals received 3 to 4 bleeds per day with one terminal bleed. The time points were 30 min, 1 h, 2 h, 4 h, 6 h, 8 h, 24 h. Plasma was collected via centrifugation and analyzed for drug concentrations.
Preparation of Study Samples and Standards for Analysis by LC-MS/MS
50 μl of plasma was aliquoted into a 96 well deep-well polypropylene plate (2 mL) to which 5 μL of DMSO was added. For standards, 5 μl of test compound in DMSO at […] the standard concentration was added to 50 μl of blank matrix in a 96 well deep-well polypropylene plate. For example, for a 300 nM standard, the 10× DMSO concentration was 3 μM. Study samples that require dilution are diluted with the appropriate blank matrix. For example, for a 10× dilution, 5 μL of study sample is added to 45 μl of blank matrix. Protein was precipitated from study samples and standards with the addition of 150 μl of acetonitrile. After a clean plate map was placed firmly over the top of the 96-well plate, a bench top shaker was used for 1 min to ensure complete precipitation of protein. The precipitated protein was pelleted by centrifuging for 3,000 rpm for 10 min at 20° C. and then the clear supernatant was transferred to a clean 96-well plate and spun again under the same conditions in order to pellet any solid material that may have been transferred.
Analysis of Study Samples and Standards with LCMS with MRM Detection
An Agilent 1200 HPLC with binary pump and a Leap CTC with fast wash autosampler were used to introduce samples to the mass spectrometer.
The column used was a Phenomenex Luna C8 30×2 mm 5 μm with a security guard. Mass detection was performed by an Applied Biosystems 4000 Qtrap in MRM mode and ionization was achieved by positive electrospray with a source temperature of 500° C. The ion transitions, […] potential and collision energies were dependent on the specific analyte.
Prepared samples were usually analyzed in reverse chronological order with bracketing standard curves. Typically at least 6 standards were used for quantification with a percent accuracy of +/−15% for all standards except at the LLOQ where a percent accuracy of +/−20% was allowed. The concentration time profile was fit using a one compartment model for the applicable mode of dosing using Phoenix WinNonLin 6.4.

[2] = biological target: T1, CXCR3 (Homo sapiens, UniProt P49682); test: CXCR3 cAMP agonist assay (cAMP Hunter CHOK1 CXCR3 Gi cell line, forskolin-stimulated, HitHunter cAMP detection); assay type: cell-based; conditions: cAMP Hunter CHOK1 CXCR3 Gi cells, 20 μM forskolin, 30 minutes; read-out: Activity (CXCR3 cAMP agonist assay compound EC50)
T1 construct: host or cells: CHO-K1 (cAMP Hunter CHOK1 CXCR3 Gi cell line)
T1 sequence (P49682 1-368): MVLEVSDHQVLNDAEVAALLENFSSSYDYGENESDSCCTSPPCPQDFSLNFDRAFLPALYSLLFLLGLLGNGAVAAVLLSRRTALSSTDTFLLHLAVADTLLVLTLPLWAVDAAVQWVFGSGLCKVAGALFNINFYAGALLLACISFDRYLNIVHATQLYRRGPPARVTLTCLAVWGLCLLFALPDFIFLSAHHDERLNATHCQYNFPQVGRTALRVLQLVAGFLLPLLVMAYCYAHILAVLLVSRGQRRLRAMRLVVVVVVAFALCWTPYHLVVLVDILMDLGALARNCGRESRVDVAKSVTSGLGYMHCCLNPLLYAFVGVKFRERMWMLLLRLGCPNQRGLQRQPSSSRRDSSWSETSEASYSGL
In short: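 CHOK1 cells expressing human CXCR3 with Gi coupling, 50,000/well in suspension in HBSS/10 mM HEPES/0.1% BSA pH 7.4, were co-treated with 20 μM forskolin and compound (12-point, 0-10 μM, 1% DMSO) for 30 min. cAMP was read by enzyme-complementation luminescence; CXCL11 dose response set maximum efficacy.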

Row | Structure (SMILES) | Cmax ([1]; C57BL/6, 10 mg/kg, male mice) | AUC(0-t) ([1]; C57BL/6, 10 mg/kg, male mice) | EC50 [2] | apparent oral clearance (CL/F) ([1]; C57BL/6, 10 mg/kg, male mice) | apparent oral clearance (CL/F) ([1]; C57BL/6, 60 mg/kg, male mice) | Cmax ([1]; C57BL/6, 60 mg/kg, male mice) | AUC(0-t) ([1]; C57BL/6, 60 mg/kg, male mice) | apparent oral clearance (CL/F) ([1]; C57BL/6, 60 mg/kg, female mice) | Cmax ([1]; C57BL/6, 60 mg/kg, female mice) | AUC(0-t) ([1]; C57BL/6, 60 mg/kg, female mice) | AUC0-24 ([1]; C57BL/6, 60 mg/kg, female mice)
1 | Cc1cc(NC(=O)[C@H](CCCCN)NC(=O)[C@@H]2Cc3ccccc3CN2C(=O)CCC(=O)c2ccccc2)ccc1Cl [Compound 1-14] | 6 nM | 0.011 µM·h | < 50 nM | – | – | – | – | – | – | – | –
2 | Cc1c(NC(=O)[C@H](CCN)NC(=O)[C@@H]2Cc3ccccc3CN2C(=O)CCC(=O)c2ccccc2)ccc(Cl)c1Cl [Compound 2-15] | 970 nM | 7.5 µM·h | < 50 nM | 37 mL/min/kg | – | – | – | – | – | – | –
3 | COc1cc(Cl)c(Cl)cc1NC(=O)[C@H](CCN)NC(=O)[C@@H]1Cc2ccccc2CN1C(=O)CCC(=O)c1ccccc1 [Compound 2-23] | – | – | < 50 nM | – | 88 mL/min/kg | 3900 nM | 19 µM·h | – | – | – | –
4 | NCC[C@H](NC(=O)[C@@H]1Cc2ccccc2CN1C(=O)CCC(=O)c1ccccc1)C(=O)Nc1ccc2c(c1)CCC2 [Compound 2-47] | – | – | < 50 nM | – | – | – | – | 66 mL/min/kg | 7600 nM | 27.5 µM·h | –
5 | Cc1cccc(NC(=O)[C@H](CCN)NC(=O)[C@@H]2Cc3ccccc3CN2C(=O)CCC(=O)c2ccccc2)c1C [Compound 2-49] | – | – | < 50 nM | – | – | – | – | 131 mL/min/kg | 7100 nM | 14.1 µM·h | –
6 | CCc1cc(NC(=O)[C@H](CCN)NC(=O)[C@@H]2Cc3ccccc3CN2C(=O)CCC(=O)c2ccccc2)ccc1Cl [Compound 2-55] | – | – | < 50 nM | – | – | – | – | 176 mL/min/kg | 3000 nM | 9.9 µM·h | –
7 | N#Cc1cc2c(cc1NC(=O)[C@H](CCN)NC(=O)[C@@H]1Cc3ccccc3CN1C(=O)CCC(=O)c1ccccc1)CCC2 [Compound 2-57] | – | – | < 50 nM | – | – | – | – | 393 mL/min/kg | 1500 nM | 4.4 µM·h | –
8 | Cc1cc(NC(=O)C2(NC(=O)[C@@H]3Cc4ccccc4CN3C(=O)CCC(=O)c3ccccc3)CCNCC2)ccc1Cl [Compound 4-12] | 3300 nM | 9 µM·h | 50 to 250 nM | 32 mL/min/kg | – | – | – | – | – | – | –
9 | O=C(CCC(=O)N1Cc2ccccc2C[C@H]1C(=O)NC1(C(=O)Nc2ccc(Cl)c(Cl)c2F)CCNCC1)c1ccccc1 [Compound 4-14] | – | – | < 50 nM | – | – | – | – | 16 mL/min/kg | 5200 nM | 99 µM·h | –
10 | Cc1cc(NC(=O)C2(NC(=O)[C@@H]3Cc4ccccc4CN3C(=O)CCC(=O)c3ccccc3)CCN(C)CC2)ccc1Cl [Compound 6-4] | 810 nM | 8.3 µM·h | 50 to 250 nM | 33 mL/min/kg | – | – | – | – | – | – | –
11 | Cc1cc(NC(=O)[C@@H](NC(=O)[C@@H]2Cc3ccccc3CN2C(=O)CCC(=O)c2ccccc2)C2CCN(C(C)C)CC2)ccc1Cl [Compound 8-2] | 710 nM | 2.3 µM·h | < 50 nM | 112 mL/min/kg | – | – | – | – | – | – | –
12 | NCC[C@H](NC(=O)[C@@H]1Cc2ccccc2CN1C(=O)CCC(=O)N1CCCC2(CCC2)C1)C(=O)Nc1ccc2c(c1)CCC2 [Compound 10-8] | – | – | < 50 nM | – | – | – | – | 431 mL/min/kg | 1500 nM | 3.9 µM·h | –
13 | Cc1cc(NC(=O)[C@H](CCN)NC(=O)[C@@H]2Cc3ccccc3CN2C(=O)CCC(=O)N2CCCC(C)(C)C2)cc(C)c1Cl [Compound 10-9] | – | – | < 50 nM | – | – | – | – | 132 mL/min/kg | 4300 nM | 12.4 µM·h | –
14 | Cc1cc(NC(=O)[C@H](CCN)NC(=O)[C@@H]2Cc3ccccc3CN2C(=O)CCC(=O)N2CCCC(C)(C)C2)ccc1Cl [Compound 12-88] | – | – | < 50 nM | – | – | – | – | 280 mL/min/kg | 3100 nM | 6 µM·h | –
15 | Cc1cc(NC(=O)[C@H](CCN)NC(=O)[C@@H]2Cc3ccccc3CN2C(=O)CCC(=O)N2CCN(C)C[C@H]2C)ccc1Cl [Compound 12-100] | – | – | < 50 nM | – | – | – | – | – | 370 nM | – | BQL
